Measurements from US20100202971A1, “COMPOUND HAVING TUMOR-RESIDENT PROPERTY” (priority 2009, published 2010).

Tested on: Human giant cell lung carcinoma cells Lu65
Assay: Biological distribution of biotinated αSQAP in tumor of tumor-bearing nude mice (Alexa 488 avidin staining of tumor slices)
Format: in vivo, KSN nude mice
Conditions: tail vein, one hour after administration, FIG. 2
Procedure: Human giant cell lung carcinoma cells Lu65 were transplanted into six-week-old male KSN nude mice in a number of 1×10^6 for each of the mice, and the mice were bred for 14 days to form a tumor mass of about 100-200 mm^3 volume in each of the mice.
Thereafter, three mice were assigned to each of the following four groups (1) to (4):
(1) a control group wherein physiological saline was administered,
(2) a high dose group wherein biotinated αSQAP was administered in a dose of 50 mg/kg,
(3) a middle dose group wherein biotinated αSQAP was administered in a dose of 5 mg/kg, and […]
The slice was observed by a fluorescence microscope, and the slice was made into an image. Data on the image were input to a computer, and then positive signals of the image were quantified according to image analysis software.
Specifically, binary image processing based on Photoshop was performed to estimate a tumor region emitting fluorescence through the labeling material Alexa 488 in the slice. Thereafter, a portion (fraction) containing tumor tissues was selected from the visual field, and the number of pixels of the Alexa 488 positive region (black region) and the entire region were counted and the ratio of the positive region was calculated according to the formula: […]

Q: Which amount in tumor (50 mg/kg) does the source give for O=C(CCCC[C@@H]1SC[C@@H]2NC(=O)N[C@@H]21)NCCC(=O)OCCCO[C@H]1O[C@H](CS(=O)(=O)[O-])[C@@H](O)[C@H](O)[C@H]1O.O=C(CCCC[C@@H]1SC[C@@H]2NC(=O)N[C@@H]21)NCCC(=O)OCCCO[C@H]1O[C@H](CS(=O)(=O)[O-])[C@@H](O)[C@H](O)[C@H]1O.[Ca+2] [biotinated αSQAP, 3-O-(6-sulfo-α-D-quinovopyranosyl)-1-O-(biotinyl-β-alanyl)-propane-1,3-diol calcium salt] here?
A: Its amount in tumor is “large”.

Q: And the “staining of tumor tissues (Alexa 488 positive region)” value (high dose group 50 mg/kg)?
A: Its value is “intensely dyed”.
